Laboratory results taken from ChEMBL document CHEMBL1136265, “Dihydropyrimidinones--a new class of anti-staphylococcal antibiotics” (Bioorg Med Chem Lett, 2003).
≈ marks a conversion by molar mass, not a printed value.

Assays:
[1] = In vitro inhibition of eucaryotic translation using […].; assay type: functional
[2] = tested on: Escherichia coli; assay: In vitro inhibition of procaryotic translation using Escherichia coli S30 Extract system for Circular DNA.; assay type: functional
[3] = tested on: Staphylococcus aureus; assay: Minimum inhibitory concentration against Staphylococcus aureus in vitro.; assay type: functional
[4] = In vitro selectivity ratio of procaryotic translation to eukaryotic translation; assay type: functional
[5] = tested on: J774; assay: Cytotoxicity against macrophage cell line (J774); assay type: functional, cell-based; details: Mus musculus
[6] = tested on: Mus musculus; assay: In vivo inhibitory activity against Staphylococcus aureus 133 after iv dose using murine sepsis model; assay type: functional

Row | IC50 [1] [µM] | IC50 [2] [µM] | MIC [3] [µg/mL] | Structure (SMILES) | Selectivity ratio [4] | EC50 [5] [µM] | ED100 [6] [mg/kg]
1 | 25 | 25 | 50 | CN(C(=O)C[C@@H](N)CCCC#N)C1CN=C(NC(N)=O)NC1=O.Cl (some centres not stated) | 1 | – | –
2 | 1.2 | 1.2 | 25 | CN(C(=O)C[C@@H](N)CCN=C(N)N)C1CN=C(NC(N)=O)NC1=O.Cl.Cl (some centres not stated) | 1 | – | –
3 | 1.6 | 0.3 | 0.2 | CN(C(=O)C[C@@H](N)CCCCN=C(N)N)C1CN=C(NC(N)=O)NC1=O.Cl.Cl (some centres not stated) | 5.3 | – | –
4 | 0.2 | 0.2 | 0.4 | CN(C(=O)C[C@@H](N)CCC/N=C(/N)S)C1CN=C(NC(N)=O)NC1=O.Cl (some centres not stated) | 1 | – | –
5 | 9.4 | 6 | 6.3 | CN(C(=O)C[C@H](N)CCCN)C1CN=C(NC(N)=O)NC1=O.Cl.Cl (some centres not stated) | 1.6 | – | –
6 | – | > 64 | 100 | CN(C(=O)CC(N)CCCO)C1CN=C(NC(N)=O)NC1=O.Cl (configuration not stated) | – | – | –
7 | 3.2 | 3 | 0.4 | CN(C(=O)C[C@@H](N)CC(O)CCN)C1CN=C(NC(N)=O)NC1=O.Cl.Cl (some centres not stated) | – | – | –
8 | 2.4 | 2.4 | 3.2 | CN(C(=O)C[C@@H](N)CC[C@H](N)CO)C1CN=C(NC(N)=O)NC1=O.Cl.Cl (some centres not stated) | 1 | – | –
9 | 0.6 | – | 0.4 | C/C(N)=N/CCC[C@H](N)CC(=O)N(C)C1CN=C(NC(N)=O)NC1=O.Cl.Cl (some centres not stated) | 0.17 | – | –
10 | – | 3 | 3.2 | CN(C(=O)C[C@@H](N)CC(=O)CCN)C1CN=C(NC(N)=O)NC1=O.Cl.Cl (some centres not stated) | – | – | –
11 | 0.17 | – | 0.1 | CN(C(=O)C[C@@H](N)CCCN=C(N)N)C1CN=C(NC(N)=O)NC1=O.Cl.Cl (some centres not stated) | 0.57 | 0.25 | 0.25
12 | 0.26 | 0.5 | 50 | CN(C(=O)CC(N)c1cccc(NC(=N)N)c1)C1CN=C(NC(N)=O)NC1=O.Cl.Cl (configuration not stated) | 0.52 | – | –
13 | 4.5 | – | 0.8 | C/N=C(/N)NCCC[C@H](N)CC(=O)N(C)C1CN=C(NC(N)=O)NC1=O.Cl.Cl (some centres not stated) | 9.1 | 5.5 | 2
14 | – | > 64 | 100 (≈ 269 µM) | COC(=O)NCCC[C@H](N)CC(=O)N(C)C1CN=C(NC(N)=O)NC1=O (some centres not stated) | – | – | –
15 | 1.2 | 1 | 0.4 | CC(N)CCC(N)CC(=O)N(C)C1CN=C(NC(N)=O)NC1=O.Cl.Cl (configuration not stated) | 1.2 | – | –
16 | – | 64 | 12.5 | CN(C(=O)C[C@@H](N)CCC(N)=O)C1CN=C(NC(N)=O)NC1=O.Cl (some centres not stated) | – | – | –
17 | 3.7 | 2 | 0.4 | CN(C(=O)C[C@@H](N)CCCN)C1CN=C(NC(N)=O)NC1=O.Cl.Cl (some centres not stated) | 1.9 | 25 | 0.2
18 | – | 1.5 | 6.3 | CN(C(=O)CC(N)CC1CNCCO1)C1CN=C(NC(N)=O)NC1=O.Cl.Cl (configuration not stated) | – | – | –
19 | 7.6 | 4 | 0.8 | CCNCCC[C@H](N)CC(=O)N(C)C1CN=C(NC(N)=O)NC1=O.Cl.Cl (some centres not stated) | 1.9 | – | –
20 | 2.8 | – | 0.05 | CN(C(=O)C[C@@H](N)CCCCN)C1CN=C(NC(N)=O)NC1=O.Cl.Cl (some centres not stated) | 5.3 | 6 | 0.25
21 | 9.4 | 9.4 | 12.5 | Br.Br.CN(C(=O)C[C@@H](N)CCCNC1=NCCN1)C1CN=C(NC(N)=O)NC1=O (some centres not stated) | 1 | – | –
